In US20170312260A1 (LAUNX BIOMEDICAL CO., LTD., priority 2014, published 2017):
Several values for one entry are separate records, joined by “and”; a condition that tells them apart may be missing. Equal values may be shown once. Read-outs that look alike come from different tables or passages of the source.

Experiments:
[1] = system: breast cancer cell line MCF7; test: WST-1 cell viability analysis, MCF7; format: cell-based; details: Homo sapiens, MCF7, 10 μM, 72 hours, read-out: viability (survival rate) of MCF7 cells
Experimental: (§1) The cell numbers were counted and reseed as 2×10^6 in cell culture plate/flask. Then, the culture medium were added to a volume of 10 ml, and the cells were cultured for 2-3 days. Then, the cells were suspended for loading into 96-well plates. The number of cells was 3000 and the volume of the culture medium was 100 μl each well.
(§2) Removing the original culture medium from 96-well plate. Then add 100 μl of commercially drug at a concentration of 10 μM per well. After 72 hours, add the diluted WST-1 reagent to the well with 100 μl/well, and the diluted WST-1 reagent was acquired from the dilution of 9:1 medium and WST-1 stock reagent. Finally, the total volume of each well was 200 μl/well. Culture the 96-well plate at 37° C. for 30 to 90 minutes. Detecting and calculate the survival rate of each cancer cells with an ELISA reader at OD450 nm.

[2] = Animal model test, body weight and health status of mice; format: in vivo, female mice (BALB/cAnN.Cg-Foxn1^nu/CrlNarl); details: for weight: single mice A-C
Experimental: In this invention, the female mice were (BALB/cAnN.Cg-Foxn1^nu/CrlNarl) purchased from National Laboratory Animal Center (Taiwan)). The weight of the mice were 21±1 g. These mice were subcutaneously injected with gastric cancer cells (AGS) and then put these mice into different cages at random. The drug test experiment was divided into three groups, include “normal control group”, “low dose group (100 mg/kg/day)”, and “high dose group (200 mg/kg/day)”. These mice were then injected test drug intraperitoneally once daily […]. The tumor sizes and body weight were measured twice a week. The tumor sizes were measured and calculated by formula: (L×W^2)/2. L represents the tumor longest length. W represents the tumor shortest diameter.

[3] = system: ovarian cancer cell line NIH-OVCAR-3; test: WST-1 cell viability analysis, NIH-OVCAR-3; format: cell-based; details: Homo sapiens, OVCAR-3, 10 μM, 72 hours, read-out: viability (survival rate) of NIH-OVCAR-3 cells
[4] = system: HepG2 (hepatocellular carcinoma); test: WST-1 cell viability analysis, HepG2; format: cell-based; details: Homo sapiens, HepG2, 10 μM, 72 hours, read-out: viability (survival rate) of HepG2 cells
[5] = system: osteosarcoma cell line U2OS; test: WST-1 cell viability analysis, U2OS; format: cell-based; details: Homo sapiens
Experimental: as §1, §2

[6] = system: bladder cancer cell line TSGH; test: WST-1 cell viability analysis, TSGH; format: cell-based; details: 72 hours, read-out: viability (survival rate) of TSGH cells
Experimental: as §1, §2

Work on `CC1=C(C(=O)OC(C)C)C(c2cccc([N+](=O)[O-])c2)C(C(=O)OC2CN(C(c3ccccc3)c3ccccc3)C2)=C(N)N1` (centres unmarked) [Azelnidipine] yielded a viability at 10 µM ([1]; run 0612-10 min) of 48.6%, a viability at 10 µM ([1]; run 0614-10 min) of 46.6% and a viability at 10 µM ([1]; run 0616-10 min) of 68.2%. The viability at 10 µM ([1]; run 0619-10 min) was 79.9%, the “health status / death of tested mice during the treatment (in words)” value ([2]; both high and low doses) was “without death” and the weight ([2]; high dose (200 mg/kg/day) i.p., Fifth measurement, 200 mg/kg/day) was 20 g and 21 g. The weight ([2]; high dose (200 mg/kg/day) i.p., First measurement, 200 mg/kg/day) was 20 g and 19.5 g, the weight ([2]; high dose (200 mg/kg/day) i.p., Fourth measurement, 200 mg/kg/day) was 20 g and 21 g and the weight ([2]; high dose (200 mg/kg/day) i.p., Second measurement, 200 mg/kg/day) was 19 g and 20 g. The weight ([2]; high dose (200 mg/kg/day) i.p., Third measurement, 200 mg/kg/day) was 20.5 g and 19 g and 20 g, the weight ([2]; low dose (100 mg/kg/day) i.p., Fifth measurement, 100 mg/kg/day) was 20 g and 21 g and the weight ([2]; low dose (100 mg/kg/day) i.p., First measurement) was 21 g. For the same molecule, the weight ([2]; low dose (100 mg/kg/day) i.p., Fourth measurement, 100 mg/kg/day) was 20 g and 21 g, the weight ([2]; low dose (100 mg/kg/day) i.p., Second measurement, 100 mg/kg/day) was 20 g and 19 g and the weight ([2]; low dose (100 mg/kg/day) i.p., Third measurement, 100 mg/kg/day) was 19.5 g and 19 g and 18.5 g. The “weight of mice during the experiment (in words)” value ([2]; low dose and high dose) was “did not show a significant decrease”, the viability at 10 µM ([3]; run 7-3-30 min) was 106% and the viability at 10 µM ([3]; run 7-4-30 min (fourth column)) was 104%. It also gave a viability at 10 µM ([3]; run 7-4-30 min (second column)) of 99.1%, a viability at 10 µM ([4]; run 0524-20 min) of 110% and a viability at 10 µM ([4]; run 0526-20 min) of 87.2%. It also gave a viability at 10 µM ([4]; run 0529-20 min) of 112%, a viability at 10 µM ([4]; run 0531-20 min) of 93.7% and a viability at 10 µM ([5]; 72 h, summary (U2OS), read-out: Inhibitory effect, osteosarcoma) of 69.4%. It also gave a viability at 10 µM ([5]; 72 hours, run 6-26-10 min, read-out: viability (survival rate) of U2OS cells) of 53.3%, a viability at 10 µM ([5]; 72 hours, run 6-28-10 min, read-out: viability (survival rate) of U2OS cells) of 78.3% and a viability at 10 µM ([5]; 72 hours, run 6-30-10 min, read-out: viability (survival rate) of U2OS cells) of 84.8%. It also gave a viability at 10 µM ([5]; 72 hours, run 7-3-10 min, read-out: viability (survival rate) of U2OS cells) of 61.2%, a viability at 10 µM ([6]; run 0510-10 min) of 151% and a viability at 10 µM ([6]; run 0512-10 min) of 117%. It also gave a viability at 10 µM ([6]; run 0515-10 min) of 72% and a viability at 10 µM ([6]; run 0517-10 min) of 120%.
